From US20240174641A1, “HETEROCYCLIC COMPOUNDS CAPABLE OF […]” (Boehringer Ingelheim International GmbH, priority 2022, published 2024)

Legend:
dog STING (dSTING) = assay: Dog differential scanning fluorimetry (DSF) assay, thermal shift of dog STING protein; assay type: binding; conditions: DSF (dDSF); 100 μM compound, 3 μM dog STING protein; Tm with ligand minus Tm of protein alone
Summary of the method: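 Dog STING residues 149–375, His-tag removed by TEV, tested at 3 μM with 100 μM compound, 5× SYPRO Orange and 2% DMSO in 20 mM Tris, 150 mM NaCl, pH 7.5. Heated 15–95 °C in 0.5 °C steps. Tm from Boltzmann fit, duplicates averaged; ΔTm relative to protein alone.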

STING = STING (Canis lupus familiaris, UniProt A0A8I3MH52); assay: Dog whole blood (dWB) assay, IFNb secretion by ELISA; assay type: cell-based; conditions: canine Interferon-beta (IFNb) ELISA, 4 h incubation at 37° C.
Sequence of STING (A0A8I3MH52 1-374): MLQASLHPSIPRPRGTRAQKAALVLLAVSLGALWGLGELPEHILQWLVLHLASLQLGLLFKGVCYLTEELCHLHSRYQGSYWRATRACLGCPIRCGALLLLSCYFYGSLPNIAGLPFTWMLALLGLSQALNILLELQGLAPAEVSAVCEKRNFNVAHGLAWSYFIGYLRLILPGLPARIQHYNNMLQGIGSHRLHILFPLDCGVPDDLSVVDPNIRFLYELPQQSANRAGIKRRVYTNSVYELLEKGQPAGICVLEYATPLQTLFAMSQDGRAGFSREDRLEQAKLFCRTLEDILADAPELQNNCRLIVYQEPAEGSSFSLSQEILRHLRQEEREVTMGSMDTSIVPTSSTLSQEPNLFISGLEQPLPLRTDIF
Experimental: For the detection of STING activation in physiological environment dog whole blood (dWB) was stimulated by the cyclic dinucleotide cGAMP or a test compound. Pathway activity was monitored by measuring the IFNb production.
Compounds were delivered as 10 mM DMSO solution, diluted and transferred by using an Echo acoustic dispenser to the 384 well assay plate (Greiner #781182), pre-filled with 10 μl 1×HBSS in each well (10×HBSS (+Ca/+Mg), #14065-049, Gibco). Typically, 8 concentrations were used with the highest concentration at 10 μM in the final assay volume followed by approximately 1:4 dilution steps. DMSO concentration was set to 0.1% in the final assay volume. The 384-well assay plate contained 20 test compounds and DMSO in control and cGAMP standard wells. The dog whole blood was collected as Na-Citrate blood (e.g., 3.8% in Monovettes from Sarstedt) and kept at 4° C. overnight until use in the assay. 80 μl of the whole blood samples were transferred to each well of the 384-well assay plates filled with compound/1×HBSS. Blood plates were kept at room temperature for 60 minutes and continuous shaking with 450 rpm, covered with the lid, but not sealed. A 10×cGAMP assay solution was diluted from a 2 mM stock solution in 1×HBSS immediately before use at room temperature. 10 μl of the 10×cGAMP/HBSS were added to the high control wells, whereas HBSS only was added to all compound and low control wells. After covering assay plates with the lid, blood plates were kept for a 4 h incubation at 37° C. in the incubator, without shaking. For the detection of IFNb in dog plasma the ELISA Kit for Canine Interferon Beta (Biotrend #SEA222Ca) was used. Whole blood assay plates were centrifuged at 1000 g for 10 minutes at 8° C. […] was transferred with a 96 well pipetting robotics from the 384 well whole blood plate to the corresponding 96 well ELISA plate, pre-filled with 60 μl assay diluent in each well. Plates were sealed with microplate seals and kept at 4° C. overnight again. ELISA plates were brought to room temperature, followed by a 1 h incubation at 37° C. in the incubator. Detection Reagent A working solution was prepared by diluting Detection Reagent A 1:100 in Assay Reagent A. Liquid was then removed from the 96 well ELISA plate to add 100 μL Detection Reagent A working solution to each well. ELISA plates were covered with the plate sealer and incubated for 1 hour at 37° C. in the incubator. The 1× Wash buffer was prepared by diluting the 30× Wash Buffer Concentrate in H2O. Detection Reagent B working solution was prepared by diluting Detection Reagent B 1:100 in Assay Reagent B. The ELISA plates were washed three times with 350 μl wash buffer and afterwards inverted and blotted against absorbent paper to remove any liquid. 100 μL of Detection Reagent B working solution was added to each well of the ELISA plates, which are then covered with the plate sealer and incubated for 30 minutes at 37° C. in the incubator. After incubation the ELISA assay plates were washed five times with 350 μl wash buffer and were again inverted and blotted against absorbent paper to remove any remaining liquid. 90 μL of TMB Substrate was added to each well of the ELISA plates, which were then covered with the plate sealer and incubated for 15 minutes at 37° C. in the incubator. The reaction was stopped by adding 50 μL stop solution and absorbance was measured at 450 nm immediately.
For data evaluation and calculation, % control calculation of each well was based on the mean of high (cGAMP stimulated control) and mean of low (unstimulated control) controls by using the following standard 4 parameter logistic regression formula:
[y=(a−d)/(1+(x/c)^b)+d] • a=low value, • d=high value, • x=conc M, • c=EC50 M, • b=slope. Dog Liver Microsome (dLM) Assay

SMILES | Delta TM (dog STING (dSTING)) [°C] | EC50 (STING) [nM]
Cc1cccc2c(-c3cccc4nn(C)c(F)c34)nn(-c3ccc(N4CC[C@H](CC(=O)O)C4)nc3)c12 [Example 17, 2-[(3R)-1-(5-{3″-fluoro-2″,7-dimethyl-1H,2″H-[3,4″-biindazol]-1-yl}pyridin-2-yl)pyrrolidin-3-yl]acetic acid] | 35.8 | 185
CC(=O)N1C[C@@H]2C[C@H]1CN2c1ccc(-n2nc(-c3cccc4nn(C)c(F)c34)c3cccc(C)c32)cn1 [Example 21, 1-[(1S,4S)-5-(5-{3″-fluoro-2″,7-dimethyl-1H,2″H-[3,4″-biindazol]-1-yl}pyridin-2-yl)-2,5-diazabicyclo[2.2.1]heptan-2-yl]ethan-1-one] | 24.9 | 1010
CC(=O)N1C[C@H]2C[C@@H]1CN2c1ccc(-n2nc(-c3cccc4nn(C)c(F)c34)c3cccc(C)c32)cn1 [Example 22, 1-[(1R,4R)-5-(5-{3″-fluoro-2″,7-dimethyl-1H,2″H-[3,4″-biindazol]-1-yl}pyridin-2-yl)-2,5-diazabicyclo[2.2.1]heptan-- 2-yl]ethan1-one] | 30.4 | 244
CC(=O)N1CC2CCC1CN2c1ccc(-n2nc(-c3cccc4nn(C)c(F)c34)c3cccc(C)c32)cn1 (stereo not shown) [Example 23, 1-[5-(5-{3″-fluoro-2″,7-dimethyl-1H,2″H-[3,4″-biindazol]-1-yl}pyridin-2-yl)-2,5-diazabicyclo[2.2.2]octan-2-yl]ethan-1-one] | 29.6 | 219
Cc1cccc2c(-c3c(F)ccc4nn(C)cc34)nn(-c3ccc(N4CC[C@@H](CC(=O)O)C4)nc3)c12 [Example 24, 2-[(3S)-1-(5-{5″-fluoro-2″,7-dimethyl-1H,2″H-[3,4″-biindazol]-1-yl}pyridin-2-yl)pyrrolidin-3-yl]acetic acid] | 35.5 | 270
Cc1cccc2c(-c3c(F)ccc4nn(C)cc34)nn(-c3ccc(N4CC[C@H](CC(=O)O)C4)nc3)c12 [Example 25, 2-[(3R)-1-(5-{5″-fluoro-2″,7-dimethyl-1H,2″H-[3,4″-biindazol]-1-yl}pyridin-2-yl)pyrrolidin-3-yl]acetic acid] | 37.0 | 283
Cc1cccc2c(-c3c(F)ccc4nn(C)cc34)nn(-c3ccc(N4C[C@@H]5C[C@H]4C[C@H]5C(=O)O)nc3)c12 [Example 27-1, (1S,4R,5R)-2-(5-{5″-fluoro-2″,7-dimethyl-1H,2″H-[3,4″-biindazol]-1-yl}pyridin-2-yl)-2-azabicyclo[2.2.1]heptane-5-carboxylic acid] | 36.9 | 211
Cc1cccc2c(-c3c(F)ccc4nn(C)cc34)nn(-c3ccc(N4C[C@H]5C[C@@H]4C[C@@H]5C(=O)O)nc3)c12 [Example 27-2, (1R,4S,5S)-2-(5-{5″-fluoro-2″,7-dimethyl-1H,2″H-[3,4″-biindazol]-1-yl}pyridin-2-yl)-2-azabicyclo[2.2.1]heptane-5-carboxylic acid] | 35.6 | 247
CC(=O)N1CCN(c2ccc(-n3nc(-c4c(F)ccc5nn(C)cc45)c4cccc(C)c43)cn2)CC1 [Example 29, 1-[4-(5-{5″-fluoro-2″,7-dimethyl-1H,2″H-[3,4″-biindazol]-1-yl}pyridin-2-yl)piperazin-1-yl]ethan-1-one] | 32.0 | 140
CC(=O)N1C[C@@H]2C[C@H]1CN2c1ccc(-n2nc(-c3c(F)ccc4nn(C)cc34)c3cccc(C)c32)cn1 [Example 30, 1-[(1S,4S)-5-(5-{5″-fluoro-2″,7-dimethyl-1H,2″H-[3,4″-biindazol]-1-yl}pyridin-2-yl)-2,5-diazabicyclo[2.2.1]heptan-2-yl]ethan-1-one] | 30.8 | 227
CC(=O)N1C[C@H]2C[C@@H]1CN2c1ccc(-n2nc(-c3c(F)ccc4nn(C)cc34)c3cccc(C)c32)cn1 [Example 31, 1-[(1R,4R)-5-(5-{5″-fluoro-2″,7-dimethyl-1H,2″H-[3,4″-biindazol]-1-yl}pyridin-2-yl)-2,5-diazabicyclo[2.2.1]heptan-2-yl]ethan-1-one] | 30.5 | 101
Cc1cccc2c(-c3cc(F)cc4nn(C)cc34)nn(-c3ccc(N4C[C@@H]5[C@H](C4)[C@H]5C(=O)O)nc3)c12 [Example 34, (1R,5S,6R)-3-(5-{6″-fluoro-2″,7-dimethyl-1H,2″H-[3,4″-biindazol]-1-yl}pyridin-2-yl)-3-azabicyclo[3.1.0]hexane-6-carboxylic acid] | 24.8 | 3280
Cc1cccc2c(-c3c(F)cc(F)c4nn(C)cc34)nn(-c3ccc(N4CCC(C(=O)O)CC4)nc3)c12 [Example 44, 1-(5-{5″,7″-difluoro-2″,7-dimethyl-1H,2″H-[3,4″-biindazol]-1-yl}pyridin-2-yl)piperidine-4-carboxylic acid] | 34.5 | 388
Cc1cccc2c(-c3c(F)cc(F)c4nn(C)cc34)nn(-c3ccc(N4CC[C@@H](CC(=O)O)C4)nc3)c12 [Example 45, 2-[(3S)-1-(5-{5″,7″-difluoro-2″,7-dimethyl-1H,2″H-[3,4″-biindazol]-1-yl}pyridin-2-yl)pyrrolidin-3-yl]acetic acid] | 33.0 | 601
Cc1cccc2c(-c3c(F)cc(F)c4nn(C)cc34)nn(-c3ccc(N4CC[C@H](CC(=O)O)C4)nc3)c12 [Example 46, 2-[(3R)-1-(5-{5″,7″-difluoro-2″,7-dimethyl-1H,2″H-[3,4″-biindazol]-1-yl}pyridin-2-yl)pyrrolidin-3-yl]acetic acid] | 35.3 | 261
CC(=O)N1CCN(c2ccc(-n3nc(-c4c(F)cc(F)c5nn(C)cc45)c4cccc(C)c43)cn2)CC1 [Example 49, 1-[4-(5-{5″,7″-difluoro-2″,7-dimethyl-1H,2″H-[3,4″-biindazol]-1-yl}pyridin-2-yl)piperazin-1-yl]ethan-1-one] | 30.5 | 416
CC(=O)N1C[C@H]2C[C@@H]1CN2c1ccc(-n2nc(-c3c(F)cc(F)c4nn(C)cc34)c3cccc(C)c32)cn1 [Example 51, 1-[(1R,4R)-5-(5-{5″,7″-difluoro-2″,7-dimethyl-1H,2″H-[3,4″-biindazol]-1-yl}pyridin-2-yl)-2,5-diazabicyclo[2.2.1]heptan-2-yl]ethan-1-one] | 29.0 | 670
Cc1cccc2c(-c3ccc(F)c4nn(C)c(F)c34)nn(-c3ccc(N4CCC(C(=O)O)CC4)nc3)c12 [Example 53, 1-(5-{3″,7″-difluoro-2″,7-dimethyl-1H,2″H-[3,4″-biindazol]-1-yl}pyridin-2-yl)piperidine-4-carboxylic acid] | 33.0 | 654
Cc1cccc2c(-c3ccc(F)c4nn(C)c(F)c34)nn(-c3ccc(N4CC[C@@H](CC(=O)O)C4)nc3)c12 [Example 54, 2-[(3S)-1-(5-{3″,7″-difluoro-2″,7-dimethyl-1H,2″H-[3,4″-biindazol]-1-yl}pyridin-2-yl)pyrrolidin-3-yl]acetic acid] | 30.0 | 261
Cc1cccc2c(-c3ccc(F)c4nn(C)c(F)c34)nn(-c3ccc(N4CC[C@H](CC(=O)O)C4)nc3)c12 [Example 55, 2-[(3R)-1-(5-{3″,7″-difluoro-2″,7-dimethyl-1H,2″H-[3,4″-biindazol]-1-yl}pyridin-2-yl)pyrrolidin-3-yl]acetic acid] | 34.5 | 197
